Experimental data taken from PubChem BioAssay AID1259407 (Chemical Carcinogenesis Research Information System (CCRIS), 2018).
Activity calls are given as the source filed them. No rule for the calls is given here.

Test system: CCRIS mutagenicity, Ames/micronucleus/aberration tests
Assay: CCRIS mutagenicity studies
[1] = Test System: AMES SALMONELLA TYPHIMURIUM, Strain/Indicator: TA100, Metabolic Activation: RAT, LIVER, S-9, AROCLOR 1254, Method: PREINCUBATION
[2] = Test System: AMES SALMONELLA TYPHIMURIUM, Strain/Indicator: TA100, Metabolic Activation: NONE, Method: STANDARD PLATE
[3] = Test System: AMES SALMONELLA TYPHIMURIUM, Strain/Indicator: TA98, Metabolic Activation: NONE, Method: STANDARD PLATE
[4] = Test System: AMES SALMONELLA TYPHIMURIUM, Strain/Indicator: TA100, Metabolic Activation: NONE, Method: PREINCUBATION
[5] = Test System: AMES SALMONELLA TYPHIMURIUM, Strain/Indicator: TA1535, Metabolic Activation: NONE, Method: PREINCUBATION

SMILES: NC(=O)N(Cc1ccccc1)N=O
- mutagenic call (Test System: AMES SALMONELLA TYPHIMURIUM, Strain/Indicator: TA100, Metabolic Activation: NONE, Method: LIQUID INCUBATION): active; positive
- mutagenic call (Test System: AMES SALMONELLA TYPHIMURIUM, Strain/Indicator: TA1535, Metabolic Activation: NONE, Method: LIQUID INCUBATION): inactive; negative

SMILES: Cc1cc2c(O)cccc2c2cc3ccccc3cc12
- mutagenic call [1]: active; positive

SMILES: O=[N+]([O-])c1cc2cccc3c4ccccc4c4cccc1c4c23
- mutagenic call (Test System: AMES SALMONELLA TYPHIMURIUM, Strain/Indicator: TA98, Metabolic Activation: NONE', Method: STANDARD PLATE): active; positive
- mutagenic call [2]: active; positive

SMILES: Cc1ccc2[nH]c3c(C)cc([N+](=O)[O-])c(C)c3c2c1
- mutagenic call [3]: active; positive
- mutagenic call (Test System: AMES SALMONELLA TYPHIMURIUM, Strain/Indicator: TA98, Metabolic Activation: RAT LIVER S-9, AROCLOR 1254, Method: STANDARD PLATE): active; positive
- mutagenic call [2]: inactive; negative
- mutagenic call (Test System: AMES SALMONELLA TYPHIMURIUM, Strain/Indicator: TA100, Metabolic Activation: RAT LIVER S-9, AROCLOR 1254, Method: STANDARD PLATE): inactive; negative
- mutagenic call (Test System: AMES SALMONELLA TYPHIMURIUM, Strain/Indicator: TA1537, Metabolic Activation: RAT LIVER S-9, AROCLOR 1254, Method: STANDARD PLATE): active; positive
- mutagenic call (Test System: AMES SALMONELLA TYPHIMURIUM, Strain/Indicator: TA1977, Metabolic Activation: NONE, Method: STANDARD PLATE): inactive; negative
- mutagenic call (Test System: AMES SALMONELLA TYPHIMURIUM, Strain/Indicator: TA1977, Metabolic Activation: RAT LIVER S-9, AROCLOR 1254, Method: STANDARD PLATE): active; positive

SMILES: CC1(C(=O)Nc2ccccc2)CO1 (stereo not drawn)
- mutagenic call (Test System: AMES SALMONELLA TYPHIMURIUM, Strain/Indicator: TA100, Metabolic Activation: MOUSE, LIVER, S-9, AROCLOR 1254, Method: STANDARD PLATE): active; positive
- mutagenic call [2]: active; positive

SMILES: CC(C)OCC1CO1 (stereo not drawn)
- mutagenic call (Test System: AMES SALMONELLA TYPHIMURIUM, Strain/Indicator: TA100, Metabolic Activation: HAMSTER, LIVER, S-9, AROCLOR 1254 (10%), Method: PREINCUBATION): active; positive
- mutagenic call [4]: active; positive
- mutagenic call (Test System: AMES SALMONELLA TYPHIMURIUM, Strain/Indicator: TA100, Metabolic Activation: RAT, LIVER, S-9, AROCLOR 1254 (10%), Method: PREINCUBATION): active; positive
- mutagenic call (Test System: AMES SALMONELLA TYPHIMURIUM, Strain/Indicator: TA1535, Metabolic Activation: HAMSTER, LIVER, S-9, AROCLOR 1254 (10%), Method: PREINCUBATION): active; positive
- mutagenic call [5]: active; positive
- mutagenic call (Test System: AMES SALMONELLA TYPHIMURIUM, Strain/Indicator: TA1535, Metabolic Activation: RAT, LIVER, S-9, AROCLOR 1254 (10%), Method: PREINCUBATION): active; positive

SMILES: CC(C)=CCC/C(C)=C/CO
- mutagenic call [3]: inactive; negative
- mutagenic call (Test System: AMES SALMONELLA TYPHIMURIUM, Strain/Indicator: TA98, Metabolic Activation: S-9, Method: STANDARD PLATE): inactive; negative
- mutagenic call [2]: inactive; negative
- mutagenic call (Test System: AMES SALMONELLA TYPHIMURIUM, Strain/Indicator: TA100, Metabolic Activation: S-9, Method: STANDARD PLATE): inactive; negative

SMILES: Clc1cccc(-c2ccc(Cl)c(Cl)c2Cl)c1Cl
- mutagenic call (Test System: AMES SALMONELLA TYPHIMURIUM, Strain/Indicator: TA97, Metabolic Activation: HAMSTER, LIVER, S-9, AROCLOR 1254 (10 OR 30%), Method: PREINCUBATION): inactive; negative
- mutagenic call (Test System: AMES SALMONELLA TYPHIMURIUM, Strain/Indicator: TA97, Metabolic Activation: NONE, Method: PREINCUBATION): inactive; negative
- mutagenic call (Test System: AMES SALMONELLA TYPHIMURIUM, Strain/Indicator: TA97, Metabolic Activation: RAT, LIVER, S-9, AROCLOR 1254 (10 OR 30%), Method: PREINCUBATION): inactive; negative
- mutagenic call (Test System: AMES SALMONELLA TYPHIMURIUM, Strain/Indicator: TA98, Metabolic Activation: HAMSTER, LIVER, S-9, AROCLOR 1254 (10 OR 30%), Method: PREINCUBATION): inactive; negative
- mutagenic call (Test System: AMES SALMONELLA TYPHIMURIUM, Strain/Indicator: TA98, Metabolic Activation: NONE, Method: PREINCUBATION): inactive; negative
- mutagenic call (Test System: AMES SALMONELLA TYPHIMURIUM, Strain/Indicator: TA98, Metabolic Activation: RAT, LIVER, S-9, AROCLOR 1254 (10 OR 30%), Method: PREINCUBATION): inactive; negative
- mutagenic call (Test System: AMES SALMONELLA TYPHIMURIUM, Strain/Indicator: TA100, Metabolic Activation: HAMSTER, LIVER, S-9, AROCLOR 1254 (10 OR 30%), Method: PREINCUBATION): inactive; negative
- mutagenic call [4]: inactive; negative
- mutagenic call (Test System: AMES SALMONELLA TYPHIMURIUM, Strain/Indicator: TA100, Metabolic Activation: RAT, LIVER, S-9, AROCLOR 1254 (10 OR 30%), Method: PREINCUBATION): inactive; negative
- mutagenic call (Test System: AMES SALMONELLA TYPHIMURIUM, Strain/Indicator: TA1535, Metabolic Activation: HAMSTER, LIVER, S-9, AROCLOR 1254 (10 OR 30%), Method: PREINCUBATION): inactive; negative
- mutagenic call [5]: inactive; negative
- mutagenic call (Test System: AMES SALMONELLA TYPHIMURIUM, Strain/Indicator: TA1535, Metabolic Activation: RAT, LIVER, S-9, AROCLOR 1254 (10 OR 30%), Method: PREINCUBATION): inactive; negative
- mutagenic call (Test System: AMES SALMONELLA TYPHIMURIUM, Strain/Indicator: TA1537, Metabolic Activation: HAMSTER, LIVER, S-9, AROCLOR 1254 (10 OR 30%), Method: PREINCUBATION): inactive; negative
- mutagenic call (Test System: AMES SALMONELLA TYPHIMURIUM, Strain/Indicator: TA1537, Metabolic Activation: NONE, Method: PREINCUBATION): inactive; negative
- mutagenic call (Test System: AMES SALMONELLA TYPHIMURIUM, Strain/Indicator: TA1537, Metabolic Activation: RAT, LIVER, S-9, AROCLOR 1254 (10 OR 30%), Method: PREINCUBATION): inactive; negative
- mutagenic call (Test System: E. COLI, Strain/Indicator: WP2 UVRA, Metabolic Activation: HAMSTER, LIVER, S-9, AROCLOR 1254, Method: STANDARD PLATE): inactive; negative
- mutagenic call (Test System: E. COLI, Strain/Indicator: WP2 UVRA, Metabolic Activation: HAMSTER, LIVER, S-9, Method: STANDARD PLATE): inactive; negative
- mutagenic call (Test System: E. COLI, Strain/Indicator: WP2 UVRA, Metabolic Activation: MOUSE, LIVER, S-9, AROCLOR 1254, Method: STANDARD PLATE): inactive; negative
- mutagenic call (Test System: E. COLI, Strain/Indicator: WP2 UVRA, Metabolic Activation: MOUSE, LIVER, S-9, Method: STANDARD PLATE): inactive; negative
- mutagenic call (Test System: E. COLI, Strain/Indicator: WP2 UVRA, Metabolic Activation: NONE, Method: STANDARD PLATE): inactive; negative
- mutagenic call (Test System: E. COLI, Strain/Indicator: WP2 UVRA, Metabolic Activation: RAT, LIVER, S-9, AROCLOR 1254, Method: STANDARD PLATE): inactive; negative
- mutagenic call (Test System: E. COLI, Strain/Indicator: WP2 UVRA, Metabolic Activation: RAT, LIVER, S-9, Method: STANDARD PLATE): inactive; negative

SMILES: CN(C)c1nc2c3cccnc3ccc2n1C
- mutagenic call (Test System: AMES SALMONELLA TYPHIMURIUM, Strain/Indicator: TA98, Metabolic Activation: RAT, LIVER, S-9, AROCLOR 1254, Method: PREINCUBATION): active; positive
- mutagenic call [1]: active; positive

SMILES: COc1cc(N)cc(OC)c1N
- mutagenic call [3]: inactive; negative
- mutagenic call (Test System: AMES SALMONELLA TYPHIMURIUM, Strain/Indicator: TA98, Metabolic Activation: RAT, LIVER, S-9, AROCLOR 1254, Method: STANDARD PLATE): inactive; negative
- mutagenic call [2]: inactive; negative
- mutagenic call (Test System: AMES SALMONELLA TYPHIMURIUM, Strain/Indicator: TA100, Metabolic Activation: RAT, LIVER, S-9, AROCLOR 1254, Method: STANDARD PLATE): inactive; negative
- mutagenic call (Test System: AMES SALMONELLA TYPHIMURIUM, Strain/Indicator: TA1535, Metabolic Activation: NONE, Method: STANDARD PLATE): inactive; negative
- mutagenic call (Test System: AMES SALMONELLA TYPHIMURIUM, Strain/Indicator: TA1535, Metabolic Activation: RAT, LIVER, S-9, AROCLOR 1254, Method: STANDARD PLATE): inactive; negative
- mutagenic call (Test System: AMES SALMONELLA TYPHIMURIUM, Strain/Indicator: TA1537, Metabolic Activation: NONE, Method: STANDARD PLATE): inactive; negative
- mutagenic call (Test System: AMES SALMONELLA TYPHIMURIUM, Strain/Indicator: TA1537, Metabolic Activation: RAT, LIVER, S-9, AROCLOR 1254, Method: STANDARD PLATE): inactive; negative
- mutagenic call (Test System: AMES SALMONELLA TYPHIMURIUM, Strain/Indicator: TA1538, Metabolic Activation: NONE, Method: STANDARD PLATE): inactive; negative
- mutagenic call (Test System: AMES SALMONELLA TYPHIMURIUM, Strain/Indicator: TA1538, Metabolic Activation: RAT, LIVER, S-9, AROCLOR 1254, Method: STANDARD PLATE): inactive; negative
